Test results published in the NIST ThermoML archive (doi:10.1016/j.jct.2006.01.009).
± gives the expanded uncertainty stated by the source.

Key:
[1] = 308.15 K, 101 kPa, Liquid; for speed of sound: Linear variable-path acoustic interferometer
[2] = xn = mol fraction of the nth substance listed; conditions: 308.15 K, 101 kPa, Liquid; for speed of sound: Linear variable-path acoustic interferometer

CC(=O)c1ccc(Cl)cc1 [4'-chloroacetophenone]
[1]
Conditions	mass density [kg/m3]	speed of sound [m/s]
–	1181.3 ± 11	1390 ± 8.5

CC(=O)c1ccc(Cl)cc1 [4'-chloroacetophenone] + CC#N
[2]
Conditions	mass density [kg/m3]	speed of sound [m/s]
x1 = 0.092	857.2 ± 7.2	1256 ± 7.7
x1 = 0.1488	900.3 ± 7.7	1266 ± 7.7
x1 = 0.2128	941.5 ± 8.1	1278 ± 7.8
x1 = 0.2863	982.6 ± 8.5	1292 ± 7.9
x1 = 0.3792	1025.8 ± 9	1310 ± 8
x1 = 0.4876	1077.5 ± 9.5	1330 ± 8.1
x1 = 0.6196	1106.9 ± 9.8	1350 ± 8.3
x1 = 0.7847	1145 ± 10	1372 ± 8.4
x1 = 1	1181.3 ± 11	1390 ± 8.5

CC(=O)c1ccc(C)cc1 [4'-methylacetophenone]
[1]
Conditions	mass density [kg/m3]	speed of sound [m/s]
–	996.3 ± 2.5	1438 ± 8.8

CC(=O)c1ccc(C)cc1 [4'-methylacetophenone] + CC#N
[2]
Conditions	mass density [kg/m3]	speed of sound [m/s]
x1 = 0.0872	816 ± 1.9	1272 ± 7.8
x1 = 0.1449	841.6 ± 1.9	1288 ± 7.9
x1 = 0.2088	865.3 ± 2	1305 ± 8
x1 = 0.2823	888.1 ± 2.1	1323 ± 8.1
x1 = 0.3756	912.4 ± 2.1	1344 ± 8.2
x1 = 0.4771	934 ± 2.2	1365 ± 8.3
x1 = 0.6125	955.6 ± 2.3	1389 ± 8.5
x1 = 0.7811	976.1 ± 2.4	1413 ± 8.6
x1 = 1	996.3 ± 2.5	1438 ± 8.8

CC#N [acetonitrile]
[1]
Conditions	mass density [kg/m3]	speed of sound [m/s]
–	770.6 ± 1.7	1239 ± 7.6

CC#N [acetonitrile] + CC(=O)c1ccc(C)cc1
[2], x2 = 0
Conditions	mass density [kg/m3]	speed of sound [m/s]
–	770.6 ± 1.7	1239 ± 7.6

CC#N [acetonitrile] + CC(=O)c1ccc(Cl)cc1
[2], x2 = 0
Conditions	mass density [kg/m3]	speed of sound [m/s]
–	770.6 ± 6.4	1239 ± 7.6

CC#N [acetonitrile] + CC(=O)c1ccccc1
[2], x2 = 0
Conditions	mass density [kg/m3]	speed of sound [m/s]
–	770.6 ± 1.7	1239 ± 7.6

CC#N [acetonitrile] + CCC(=O)c1ccccc1
[2], x2 = 0
Conditions	mass density [kg/m3]	speed of sound [m/s]
–	770.6 ± 1.7	1239 ± 7.6

CC(=O)c1ccccc1 [acetophenone]
[1]
Conditions	mass density [kg/m3]	speed of sound [m/s]
–	1020 ± 2.5	1445 ± 8.8

CC(=O)c1ccccc1 [acetophenone] + CC#N
[2]
Conditions	mass density [kg/m3]	speed of sound [m/s]
x1 = 0.048	796.8 ± 1.8	1254 ± 7.7
x1 = 0.1023	823.3 ± 1.9	1268 ± 7.7
x1 = 0.1626	849.3 ± 2	1284 ± 7.8
x1 = 0.2321	874.7 ± 2	1303 ± 8
x1 = 0.3113	900 ± 2.1	1327 ± 8.1
x1 = 0.4024	924.7 ± 2.2	1351 ± 8.3
x1 = 0.5125	949.3 ± 2.3	1374 ± 8.4
x1 = 0.6426	972.2 ± 2.3	1395 ± 8.5
x1 = 0.8018	995.6 ± 2.4	1417 ± 8.7
x1 = 1	1020 ± 2.5	1445 ± 8.8

CCC(=O)c1ccccc1 [ethyl phenyl ketone]
[1]
Conditions	mass density [kg/m3]	speed of sound [m/s]
–	1000.6 ± 2.5	1432 ± 8.8

CCC(=O)c1ccccc1 [ethyl phenyl ketone] + CC#N
[2]
Conditions	mass density [kg/m3]	speed of sound [m/s]
x1 = 0.0418	793.4 ± 1.8	1250 ± 7.6
x1 = 0.0922	817.8 ± 1.9	1264 ± 7.7
x1 = 0.1459	841.2 ± 1.9	1279 ± 7.8
x1 = 0.2084	864.9 ± 2	1296 ± 7.9
x1 = 0.2864	889.8 ± 2.1	1314 ± 8
x1 = 0.3757	913.6 ± 2.2	1335 ± 8.2
x1 = 0.4796	936 ± 2.2	1357 ± 8.3
x1 = 0.6093	957.5 ± 2.3	1381 ± 8.4
x1 = 0.7791	978.6 ± 2.4	1406 ± 8.6
x1 = 1	1000.6 ± 2.5	1432 ± 8.8
